Measurements reported in PubChem BioAssay (NCI).
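Interpolation was linear, between the two tested concentrations surrounding the appropriate level; five concentrations were tested over 48 hours in 96-well plates. At the GI50, growth is halved. At the TGI there is no net growth.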 Where a SMILES comes first, the peptide text is derived from it. [ ]: non-standard residue; d: D form. pGlu = O=C1CC[CH](C(=O)O)N1

How the values were obtained:
Test in all cases: growth of human tumour cells (NCI), 48 h; in the data active = GI50 below about 0.43 µM; inactive = the rest
786-0 renal = test system: 786-0 renal
A498 renal = test system: A498 renal
A549 NSCLC = test system: A549 NSCLC
ACHN renal = test system: ACHN renal
BT-549 breast = test system: BT-549 breast
CAKI-1 renal = test system: CAKI-1 renal
CCRF-CEM leukemia = test system: CCRF-CEM leukemia
COLO 205 colon = test system: COLO 205 colon
DU-145 prostate = test system: DU-145 prostate
EKVX NSCLC = test system: EKVX NSCLC
HCC-2998 colon = test system: HCC-2998 colon
HCT-116 colon = test system: HCT-116 colon
HCT-15 colon = test system: HCT-15 colon
HL-60(TB) leukemia = test system: HL-60(TB) leukemia
HOP-62 NSCLC = test system: HOP-62 NSCLC
HOP-92 NSCLC = test system: HOP-92 NSCLC
HT29 colon = test system: HT29 colon
IGROV1 ovarian = test system: IGROV1 ovarian
K-562 leukemia = test system: K-562 leukemia
KM12 colon = test system: KM12 colon
M14 melanoma = test system: M14 melanoma
MALME-3M melanoma = test system: MALME-3M melanoma
MCF7 breast = test system: MCF7 breast
MDA-MB-435 = test system: MDA-MB-435
MDA-MB-468 breast = test system: MDA-MB-468 breast
MOLT-4 leukemia = test system: MOLT-4 leukemia
NCI-H226 lung = test system: NCI-H226 lung
NCI-H23 lung = test system: NCI-H23 lung
NCI-H460 lung = test system: NCI-H460 lung
NCI-H522 lung = test system: NCI-H522 lung
NCI/ADR-RES ovarian = test system: NCI/ADR-RES ovarian
OVCAR-3 ovarian = test system: OVCAR-3 ovarian
OVCAR-4 ovarian = test system: OVCAR-4 ovarian
OVCAR-5 ovarian = test system: OVCAR-5 ovarian
OVCAR-8 ovarian = test system: OVCAR-8 ovarian
PC-3 prostate = test system: PC-3 prostate
RPMI-8226 leukemia = test system: RPMI-8226 leukemia
RXF 393 renal = test system: RXF 393 renal
SF-268 CNS = test system: SF-268 CNS
SF-295 CNS = test system: SF-295 CNS
SF-539 CNS = test system: SF-539 CNS
SK-MEL-2 melanoma = test system: SK-MEL-2 melanoma
SK-MEL-28 melanoma = test system: SK-MEL-28 melanoma
SK-MEL-5 melanoma = test system: SK-MEL-5 melanoma
SK-OV-3 ovarian = test system: SK-OV-3 ovarian
SN12C renal = test system: SN12C renal
SNB-19 CNS = test system: SNB-19 CNS
SNB-75 CNS = test system: SNB-75 CNS
SR leukemia = test system: SR leukemia
T-47D breast = test system: T-47D breast
TK-10 renal = test system: TK-10 renal
U251 CNS = test system: U251 CNS
UACC-257 melanoma = test system: UACC-257 melanoma
UACC-62 melanoma = test system: UACC-62 melanoma
UO-31 renal = test system: UO-31 renal

O=C(Cn1c(/C=C/c2ccccc2)nc2ccccc2c1=O)Nc1ccc(Cl)cc1
57.4 µM: TGI (SK-OV-3 ovarian)
46 µM: TGI (TK-10 renal)
47.5 µM: TGI (T-47D breast)
> 100 µM: TGI (A549 NSCLC) | TGI (BT-549 breast) | TGI (CAKI-1 renal) | TGI (CCRF-CEM leukemia) | TGI (COLO 205 colon) | TGI (DU-145 prostate) | TGI (EKVX NSCLC) | TGI (HCC-2998 colon) | TGI (HCT-116 colon) | TGI (HCT-15 colon) | TGI (HL-60(TB) leukemia) | TGI (HT29 colon) | TGI (IGROV1 ovarian) | TGI (K-562 leukemia) | TGI (KM12 colon) | TGI (M14 melanoma) | TGI (MALME-3M melanoma) | TGI (MCF7 breast) | TGI (MDA-MB-435) | TGI (MDA-MB-468 breast) | TGI (MOLT-4 leukemia) | TGI (NCI-H226 lung) | TGI (NCI-H23 lung) | TGI (NCI-H460 lung) | TGI (NCI-H522 lung) | TGI (NCI/ADR-RES ovarian) | TGI (OVCAR-3 ovarian) | TGI (OVCAR-4 ovarian) | TGI (OVCAR-5 ovarian) | TGI (OVCAR-8 ovarian) | TGI (PC-3 prostate) | TGI (RPMI-8226 leukemia) | TGI (SF-268 CNS) | TGI (SF-295 CNS) | TGI (SF-539 CNS) | TGI (SK-MEL-2 melanoma) | TGI (SK-MEL-28 melanoma) | TGI (SK-MEL-5 melanoma) | TGI (SN12C renal) | TGI (SNB-19 CNS) | TGI (SR leukemia) | TGI (U251 CNS) | TGI (UACC-257 melanoma) | TGI (UACC-62 melanoma)
inactive: GI50 (786-0 renal) 18.4 µM | GI50 (A498 renal) 22.2 µM | GI50 (A549 NSCLC) 87.2 µM | GI50 (ACHN renal) 16 µM | GI50 (BT-549 breast) > 100 µM | GI50 (CAKI-1 renal) 69 µM | GI50 (CCRF-CEM leukemia) > 100 µM | GI50 (COLO 205 colon) > 100 µM | GI50 (DU-145 prostate) > 100 µM | GI50 (EKVX NSCLC) > 100 µM | GI50 (HCC-2998 colon) > 100 µM | GI50 (HCT-116 colon) 46 µM | GI50 (HCT-15 colon) > 100 µM | GI50 (HL-60(TB) leukemia) > 100 µM | GI50 (HOP-62 NSCLC) 24.7 µM | GI50 (HOP-92 NSCLC) 11.2 µM | GI50 (HT29 colon) > 100 µM | GI50 (IGROV1 ovarian) 70.1 µM | GI50 (K-562 leukemia) > 100 µM | GI50 (KM12 colon) > 100 µM | GI50 (M14 melanoma) > 100 µM | GI50 (MALME-3M melanoma) 71.3 µM | GI50 (MCF7 breast) > 100 µM | GI50 (MDA-MB-435) > 100 µM | GI50 (MDA-MB-468 breast) 29.2 µM | GI50 (MOLT-4 leukemia) > 100 µM | GI50 (NCI-H226 lung) 23.9 µM | GI50 (NCI-H23 lung) 34.4 µM | GI50 (NCI-H460 lung) 39.6 µM | GI50 (NCI-H522 lung) 83.4 µM | GI50 (NCI/ADR-RES ovarian) 71.4 µM | GI50 (OVCAR-3 ovarian) 60.6 µM | GI50 (OVCAR-4 ovarian) 9.54 µM | GI50 (OVCAR-5 ovarian) > 100 µM | GI50 (OVCAR-8 ovarian) > 100 µM | GI50 (PC-3 prostate) > 100 µM | GI50 (RPMI-8226 leukemia) > 100 µM | GI50 (RXF 393 renal) 14.4 µM | GI50 (SF-268 CNS) > 100 µM | GI50 (SF-295 CNS) 26.8 µM | GI50 (SF-539 CNS) 30.9 µM | GI50 (SK-MEL-2 melanoma) > 100 µM | GI50 (SK-MEL-28 melanoma) > 100 µM | GI50 (SK-MEL-5 melanoma) > 100 µM | GI50 (SK-OV-3 ovarian) 24.8 µM | GI50 (SN12C renal) 16.7 µM | GI50 (SNB-19 CNS) 32.7 µM | GI50 (SNB-75 CNS) 19.4 µM | GI50 (SR leukemia) > 100 µM | GI50 (T-47D breast) 15.8 µM | GI50 (TK-10 renal) 21.4 µM | GI50 (U251 CNS) 13.9 µM | GI50 (UACC-257 melanoma) > 100 µM | GI50 (UACC-62 melanoma) > 100 µM | GI50 (UO-31 renal) 21.3 µM
40.9 µM: TGI (A498 renal)
53.8 µM: TGI (SNB-75 CNS)
49.6 µM: TGI (ACHN renal)
35.3 µM: TGI (RXF 393 renal)
64.8 µM: TGI (786-0 renal) | TGI (UO-31 renal)
32.2 µM: TGI (HOP-92 NSCLC)
80.1 µM: TGI (HOP-62 NSCLC)

C[C@]12CC[C@@H]3c4ccc(OC(=O)N(CCCl)CCCl)cc4CC[C@H]3[C@@H]1CC[C@@H]2O
4.21 µM: TGI (MDA-MB-468 breast)
inactive: GI50 (MDA-MB-468 breast) 1.69 µM

COc1cc(/C=C\c2cc(OC)c(OC)c(OC)c2)cc(NC(=O)/C=C/c2cc(OC)c(OC)c(OC)c2)c1OC
> 100 µM: TGI (MDA-MB-468 breast)
inactive: GI50 (MDA-MB-468 breast) 1.99 µM

CCOC(=O)Nc1ccc2c(c1)/C(=N\NC(N)=S)c1ccccc1-2
25 µM: TGI (MDA-MB-468 breast)
inactive: GI50 (MDA-MB-468 breast) 3.46 µM

CCNC(=O)C1CCCN1C(=O)C(CCCN=C(N)N)NC(=O)C(CC(C)C)NC(=O)C(CC(C)C)NC(=O)C(Cc1ccc(O)cc1)NC(=O)C(CO)NC(=O)C(Cc1c[nH]c2ccccc12)NC(=O)C(Cc1cnc[nH]1)NC(=O)C1CCC(=O)N1 (centres undefined) ([pGlu]HWSYLLRP-NHEt; configuration not given here)
inactive: GI50 (MDA-MB-468 breast) > 100 µM
> 100 µM: TGI (MDA-MB-468 breast)

Clc1nc(Cl)c2ncn(CC3(Cn4cnc5c(Cl)nc(Cl)nc54)COC3)c2n1
0.408 µM: TGI (MDA-MB-468 breast)
active: GI50 (MDA-MB-468 breast) 0.192 µM

O=C(Oc1cccc(F)c1OC(=O)c1cccc(O)c1)c1cccc(O)c1
55.2 µM: TGI (MDA-MB-468 breast)
inactive: GI50 (MDA-MB-468 breast) 18.2 µM

C[C@H](NC(=O)[C@@H](C)N)[C@H](Oc1ccc2c(cnn2-c2ccc(F)cc2)c1)c1ccc2c(c1)OCCO2
4.05 µM: TGI (MDA-MB-468 breast)
inactive: GI50 (MDA-MB-468 breast) 2.12 µM

CN(CCO)CC[C@H](CSc1ccccc1)Nc1ccc(S(=O)(=O)NC(=O)c2ccc(N3CCC([C@@H](O)c4ccccc4-c4ccc(Cl)cc4)CC3)cc2)cc1S(=O)(=O)C(F)(F)F
inactive: GI50 (MDA-MB-468 breast) 1.87 µM
5.19 µM: TGI (MDA-MB-468 breast)

COc1cccc(N2CCN(CC(=O)N3CCN(c4nnc(-c5ccc(Cl)cc5)c(-c5ccc(Cl)cc5)n4)CC3)CC2)c1
inactive: GI50 (MDA-MB-468 breast) 22.5 µM
> 100 µM: TGI (MDA-MB-468 breast)

ClCc1cccc2c(CCl)cccc12
3.05 µM: TGI (MDA-MB-468 breast)
inactive: GI50 (MDA-MB-468 breast) 1.12 µM

COc1ccc(C(=S)N2CCN(c3cccc(C)c3)CC2)cc1OC
inactive: GI50 (MDA-MB-468 breast) 2.65 µM
> 100 µM: TGI (MDA-MB-468 breast)

Oc1c(-c2nnc(-c3ccccc3Cl)o2)sc2nnc(-c3ccccc3)c(-c3ccccc3)c12
27.8 µM: TGI (MDA-MB-468 breast)
inactive: GI50 (MDA-MB-468 breast) 5.11 µM

O=C(CCCCCCNC(=O)c1cnc(N(c2ccccc2)c2ccccc2)nc1)NO
10.2 µM: TGI (MDA-MB-468 breast)
inactive: GI50 (MDA-MB-468 breast) 1.22 µM

O=C(Nc1cc(Cl)cc(Cl)c1)Nc1nc2ccc([N+](=O)[O-])cc2s1
inactive: GI50 (MDA-MB-468 breast) 1 µM
4.22 µM: TGI (MDA-MB-468 breast)

CCN1C(=O)N(CC)C2C1NN=c1s/c(=C\c3cccc(F)c3)c(=O)n12 (centres undefined)
active: GI50 (MDA-MB-468 breast) 0.183 µM
> 100 µM: TGI (MDA-MB-468 breast)

IP(CCCSc1n(Cc2ccc3ccccc3c2)c(-c2ccccc2)c(-c2ccccc2)[n+]1Cc1ccc2ccccc2c1)(c1ccccc1)(c1ccccc1)c1ccccc1
inactive: GI50 (MDA-MB-468 breast) 2.25 µM
5.97 µM: TGI (MDA-MB-468 breast)

C=C1C(=O)O[C@H]2[C@H]1CC/C(COC(=O)CSCSCC(=O)OC/C1=C/CC[C@@]3(C)O[C@H]3[C@H]3OC(=O)C(=C)[C@@H]3CC1)=C\CC[C@@]1(C)O[C@@H]21
2.7 µM: TGI (MDA-MB-468 breast)
inactive: GI50 (MDA-MB-468 breast) 1.07 µM
